Among the data in patent US10375956B2, “Herbicidally active 2-(substituted-phenyl)-cyclopentane-1,3-dione compounds and derivatives thereof” (Syngenta Limited, priority 2013, dated 2019) are pest or weed control and plant injury values, retold here.

What all share (type): in vivo
Test [1] has as its system Abutilon theophrasti (ABUTH). Description: Test 1 glasshouse assay, pre-emergence herbicidal activity. Conditions: 312 h, visual evaluation after 13 days, read-out: Percentage phytotoxicity ABUTH. As for the experimental part: (§1) Seeds of a variety of test species are sown in standard soil in pots. After cultivation for one day (pre-emergence) or after 8 days cultivation (post-emergence) under controlled conditions in a glasshouse (at 24/16° C., day/night; 14 hours light; 65% humidity), the plants are sprayed with an aqueous spray solution derived from the formulation of the “technical” (i.e. unformulated) active ingredient in acetone/water (50:50) solution containing 0.5% Tween 20 (polyoxyethylene sorbitan monolaurate, CAS Registry Number 9005-64-5). The test plants are then grown on under controlled conditions in a glasshouse (at 24/16° C., day/night; 14 hours light; 65% humidity) and watered twice daily. After 13 days for pre- or post-emergence, the test is evaluated visually, and an assessed percentage phytotoxicity score is given for each herbicidal application on each plant species (where 100%=total damage to plant; 0%=no damage to plant).
(§2) Test plants include the following: Abutilon theophrasti (ABUTH), Amaranthus retroflexus (AMARE): these are dicotyledonous (broadleaved) weeds. Setaria faberi (SETFA), Alopecurus myosuroides (ALOMY), Echinochloa crus-galli (ECHCG): these are grassy monocotyledonous weeds. Also: Zea mays (ZEAMX, corn/maize), which can be a grassy weed (“volunteer” corn) in some circumstances.

Test [2] relates to Alopecurus myosuroides (ALOMY). The description is as above. Conditions: 312 h, visual evaluation after 13 days, read-out: Percentage phytotoxicity ALOMY. As to the method:
as §1, §2

Test [3] relates to Amaranthus retroflexus (AMARE). The description is as above. The following applies: 312 h, visual evaluation after 13 days, read-out: Percentage phytotoxicity AMARE. As for the experimental part:
as §1, §2

The subject of test [4] is Echinochloa crus-galli (ECHCG). The description is as above. The following applies: 312 h, visual evaluation after 13 days, read-out: Percentage phytotoxicity ECHCG. As for the experimental part: as §1, §2
Test [5] concerns Setaria faberi (SETFA). Described as above. Conditions: 312 h, visual evaluation after 13 days, read-out: Percentage phytotoxicity SETFA. As to the method: as §1, §2
Test [6] concerns Zea mays (ZEAMX, corn/maize). Described as above. The following applies: 312 h, visual evaluation after 13 days, read-out: Percentage phytotoxicity ZEAMX. As to the method: as §1, §2
The test system of test [7] is Abutilon theophrasti (ABUTH). In words: Test 1 glasshouse assay, post-emergence herbicidal activity. Conditions: 312 h, post-emergence (Example 1B Table 1), after 13 days, read-out: Percentage phytotoxicity ABUTH. As for the experimental part: as §1
(§3) Test plants include the following: Abutilon theophrasti (ABUTH) and Amaranthus retroflexus (AMARE); these are all dicotyledonous (broadleaved) weeds. Setaria faberi (SETFA), Alopecurus myosuroides (ALOMY), and Echinochloa crus-galli (ECHCG); these are all grassy monocotyledonous weeds. Also: Zea mays (ZEAMX, corn/maize), which can be a grassy weed (“volunteer” corn) in some circumstances.

For test [8], the system named is Amaranthus retroflexus (AMARE). The test is described as above. The following applies: 312 h, post-emergence (Example 1B Table 1), after 13 days, read-out: Percentage phytotoxicity AMARE. As to the method: as §1, §3
In test [9] the test system is Setaria faberi (SETFA). Described as above. Conditions: 312 h, post-emergence (Example 1B Table 1), after 13 days, read-out: Percentage phytotoxicity SETFA. As to the method: as §1, §3
The subject of test [10] is Zea mays (ZEAMX, corn/maize). Described as above. Conditions: 312 h, post-emergence (Example 1B Table 1), after 13 days, read-out: Percentage phytotoxicity ZEAMX. As to the method: as §1, §3
The test system of test [11] is Alopecurus myosuroides (ALOMY). The description is as above. The following applies: 312 h, after 13 days, read-out: Percentage phytotoxicity ALOMY. As for the experimental part: as §1, §3
(§4) Lolium perenne (LOLPE), Alopecurus myosuroides (ALOMY), Echinochloa crus-galli (ECHCG), and Avena fatua (AVEFA); these are all grassy monocotyledonous weeds. Cool climate crop plant: Triticum aestivum (TRZAW, winter wheat).

For test [12], the system named is Echinochloa crus-galli (ECHCG). The description is as above. Conditions: 312 h, after 13 days, read-out: Percentage phytotoxicity ECHCG. As for the experimental part:
as §1, §3, §4

The subject of the next test is Avena fatua (AVEFA). The test is described as above. Conditions: 312 h, post-emergence (Example 1B Table 2), after 13 days, read-out: Percentage phytotoxicity AVEFA. As for the experimental part:
as §1, §4

The subject of another test is Lolium perenne (LOLPE). Described as above. The following applies: 312 h, post-emergence (Example 1B Table 2), after 13 days, read-out: Percentage phytotoxicity LOLPE. As for the experimental part:
as §1, §4

For test [13], the system named is Triticum aestivum (TRZAW, winter wheat). The description is as above. Conditions: 312 h, post-emergence (Example 1B Table 2), after 13 days, crop plant, read-out: Percentage phytotoxicity TRZAW. As to the method:
as §1, §4

[14] abbreviates: post-emergence (Example 1B Table 1).
[15] abbreviates: post-emergence (Example 1B Table 2).
Where [16] appears, read: post-emergence (Example 1B Table 1), 8 g/ha.

For the molecule `C#CCC1CC(=O)C(c2cc(-c3ccc(Cl)cn3)ccc2C)C1=O` (centres unmarked) [Compound A17], the pest or weed control at 250 g/ha in [1] stood at 10%; in [2], 70%; in test [3], 10%; in [4] it was 70%; in the test on Setaria faberi (SETFA) [5], 70%; in [6], 60%. Further, the pest or weed control at 250 g/ha in test [7] turned out to be 10%; in [8], 50%; in the test on Setaria faberi (SETFA) [9] it was 80%; in test [10] it was 60%; in test [11] (setting [14]), 70%; in test [12] (setting [14]), 80%.
Take `C#CCC1CC(=O)C(c2c(C)cc(C#C)cc2C)C1=O` (centres unmarked) [Compound A27]: the pest or weed control at 250 g/ha (in test [2]; in [4]; in [11] (setting [15]); in test [12] (setting [15]); in the test with Avena fatua (AVEFA); with Lolium perenne (LOLPE)) was 100% each time. Also, the pest or weed control at 62.5 g/ha is 90% in test [11] (setting [15]), 90% in test [12] (setting [15]), 90% with Avena fatua (AVEFA) and 80% in the test on Lolium perenne (LOLPE). Further, in test [13], the plant injury at 62.5 g/ha was 80%. Further, in test [13], the plant injury at 250 g/ha amounted to 90%.
As to `CC#CCC1CC(=O)C(c2c(C)cc(C)cc2C)C1=O` (centres unmarked) [Compound A24], the pest or weed control at 250 g/ha in [2] worked out at 100%; in test [4], 100%; in test [11] (setting [15]) it was 80%; in test [12] (setting [15]), 80%; in the test on Avena fatua (AVEFA) it was 50%; in the test on Lolium perenne (LOLPE), 80%. Further, the pest or weed control at 62.5 g/ha in test [11] (setting [15]) is 60%; in test [12] (setting [15]), 70%; with Avena fatua (AVEFA) it was 60%; in the test with Lolium perenne (LOLPE), 70%. In test [13], the plant injury at 62.5 g/ha came to 0%. Moreover, in test [13], the plant injury at 250 g/ha is 0%.
As for `C#Cc1cc(C)c(C2C(=O)CC(CC#CC)C2=O)c(C)c1` (centres unmarked) [Compound A28], the pest or weed control at 250 g/ha in test [2] was determined as 90%; in test [4] it was 100%; in test [11] (setting [15]), 100%; in [12] (setting [15]) it was 100%; in the test with Avena fatua (AVEFA) it was 90%; in the test on Lolium perenne (LOLPE) it was 90%. Moreover, the pest or weed control at 62.5 g/ha in test [11] (setting [15]) was found to be 70%; in [12] (setting [15]) it was 90%; in the test with Avena fatua (AVEFA) it was 80%; in the test with Lolium perenne (LOLPE) it was 80%. Besides, the plant injury at 62.5 g/ha in [13] turned out to be 30%. Further, the plant injury at 250 g/ha in test [13] is 80%.
Take `C#CCC1CC(=O)C(c2c(Br)cc(C)cc2Br)C1=O` (centres unmarked) [Compound A26]: the pest or weed control at 250 g/ha is 30% in test [2]; 80% in test [4]; 60% in test [11] (setting [15]); 100% in test [12] (setting [15]); 70% with Avena fatua (AVEFA); 100% in the test on Lolium perenne (LOLPE). For the same molecule, the plant injury at 250 g/ha in test [13] was 10%.
Regarding `C#CCC1CC(=O)C(c2ccc(-c3ccc(Cl)cc3)cc2C)C1=O` (centres unmarked) [Compound A43], the pest or weed control at 250 g/ha in test [8] was 0%; with Setaria faberi (SETFA) [9] it was 70%; in test [11] (setting [14]) it was 20%; in [12] (setting [14]), 20%.
As for `C#CCC1C(=O)C(c2cc(-c3ccc(Cl)cc3)ccc2C)C(=O)C1CC#C` (centres unmarked) [Compound A44], the pest or weed control at 8 g/ha in test [7] (8 g/ha) was found to be 0%; in test [8] (8 g/ha) it was 0%; with Setaria faberi (SETFA) [9] (8 g/ha) it was 0%; in test [10] (8 g/ha), 30%; in test [11] (setting [16]), 0%; in test [12] (setting [16]), 0%. The pest or weed control at 250 g/ha in [7] worked out at 10%; in test [8], 0%; in the test with Setaria faberi (SETFA) [9], 0%; in test [10] it was 20%; in test [11] (setting [14]), 0%; in test [12] (setting [14]) it was 0%.
With `C#CCC1CC(=O)C(c2c(Cl)cccc2Cl)C1=O` (centres unmarked) [Compound A29], the pest or weed control at 250 g/ha in [2] was 70%; in test [4], 90%; in test [11] (setting [15]), 80%; in test [12] (setting [15]), 100%; in the test on Avena fatua (AVEFA), 60%; with Lolium perenne (LOLPE) it was 80%. In addition, the pest or weed control at 62.5 g/ha turned out to be 60% in [11] (setting [15]), 90% in test [12] (setting [15]), 0% with Avena fatua (AVEFA) and 60% in the test on Lolium perenne (LOLPE). In addition, the plant injury at 62.5 g/ha in test [13] came to 60%. For the same molecule, the plant injury at 250 g/ha in [13] stood at 80%.
